Results on eight compounds are retold here after patent US9446015B2, “Quinone based nitric oxide donating compounds for ophthalmic use” (NICOX SCIENCE IRELAND, priority 2012, dated 2016).

For data set [1], the system named is lipidic peroxidation of membrane lipids in rat hepatocytes (hepatic microsomal membranes). Briefly: In vitro antioxidant activity (TBARS test). The data set is classed as biochemical. Particulars: read-out: Antioxidant activity IC50 μM (CL 95%). The method, then: The antioxidant properties of compounds (6) (disclosed in example 1) and compound (23) (disclosed in example 19) and reference antioxidant compounds were assessed after NADPH-induced lipidic peroxidation of membrane lipids in rat hepatocytes using the detection of 2-thiobarbituric acid reactive substances (TBARS) by visible spectroscopy.
Hepatic microsomal membranes from male Wistar rats (200-250 g) were prepared by differential centrifugation (8000 g, 20 min; 120000 g, 1 h) in a HEPES/sucrose buffer (10 mM, 250 mM, pH 7.4) and stored at −80° C. Incubation was performed at 37° C. in a Tris-HCl/KCl (100 mM/150 mM, pH 7.4) containing microsomal membranes (2 mg prot/mL), sodium ascorbate (100 μM), and DMSO solutions of the tested compounds. Lipid peroxidation was initiated by adding ADP-FeCl3 and NADPH (Method A) or 2.5 μM FeSO4 (Method B) (as described by Boschi D. et al., J. Med. Chem. 2006, 49:2886-2897). Aliquots were taken from the incubation mixture at 5, 15, and 30 min and treated with trichloroacetic acid (TCA) 10% w/v. Lipid peroxidation was assessed by spectrophotometric (543 nm) determination of the TBARS consisting mainly of malondialdehyde (MDA). TBARS concentrations (expressed in nmol/mg protein) were obtained by interpolation with a MDA standard curve. The antioxidant activity of tested compounds was evaluated as the percent inhibition of TBARS production with respect to control samples, using the values obtained after 30 min of incubation. IC50 values were calculated by nonlinear regression analysis.

Data set [2] relates to rat L-NAME-induced hypertension. In words: In vivo tolerance evaluation, L-NAME-induced hypertension after 5-day oral treatment. Particulars: 5-ISMN 30 mg/kg; for Delta vs basal (mmHg): peak effect 1 hour. The method, then: (§1) Fasted male SD rats (250-300 g, n=3-5 per group), obtained from Harlan Italy (Correzzana, Milan, Italy) were orally treated with tested compounds or vehicle (DMSO:Methocel 1% 2/98 v/v) in a total volume of 4 ml/kg by gavage. At each time point (1, 3, 6 and 24 h) animals were deeply anesthetized with Zoletil® 100 (3 mg/kg), given intramuscularly. Thereafter, a pressure catheter (Samba Sensors, Harvard Apparatus, UK) was introduced into the common carotid artery for central blood pressure measurement. Pressure transducer was connected to a personal computer, in order to allow real time monitor of the pressure tracing. After 10 minutes of basal recording, L-NAME (50 mg/kg) was administered intraperitoneally and the effect on SBP monitored. When the SBP stabilized (5 minutes without variations) the recording was stopped. To further confirm that functional activity was NO-dependent, at each time point blood ^15N-nitrite levels were measured following the procedure described in Example 12.
To investigate whether the compound (6) induced nitrate tolerance, as observed for most of the drugs belonging to the nitrate class, the L-NAME-induced hypertension rat model described in Example 7 was performed following a repeated oral treatment. Rats were orally treated for 5 days with vehicle, compound (6) (100 mg/kg) or 5-ISMN (30 mg/kg). […] The experiments were performed at the peak effect (1 hour for 5-ISMN and 3 hours for Compound (6)), results are reported in Table 3.

For data set [3], the system named is hypertonic saline-induced IOP increase in rabbits. Briefly: IOP lowering activity in hypertonic saline-induced IOP increase in rabbits. The data set is classed as in vivo, New Zealand White rabbits. The source says: Intraocular pressure (IOP) lowering activity in hypertonic saline-induced IOP increase in rabbits.
This animal model of elevated IOP was used for assessing the intraocular pressure (IOP) lowering activities of some compounds of the invention, timolol, dorzolamide and 5-isosorbide mononitrate.
• compounds (6), (20) and (25) • timolol and dorzolamide that are drugs commonly used for the treatment of glaucoma and ocular hypertension. • Isosorbide mononitrate (5-ISMN) that is a commonly used nitric oxide donor drug.
(§2) Timolol, dorzolamide and 5-ISMN were tested as reference compounds. Adults male New Zealand White rabbits weighting 1.8-2.0 Kg were used in the experiments.
IOP was measured using a Tono-Pen XL prior to hypertonic saline injection (basal) and at 30, 60, 120 and 240 min thereafter. Vehicle (5% cremophor-EL; 0.3% DMSO; 0.2 mg/ml BAK in PBS pH 6.0) and all the tested compounds dissolved in the vehicle were instilled as eye drops immediately after hypertonic saline injection. Eyes were randomly assigned to different treatment groups. Vehicle and the tested compounds were directly instilled into the conjunctiva pocket at the desired doses. One drop of 0.4% oxybuprocaine hydrochloride (Novesine, Sandoz) was instilled in each eye immediately before each set of pressure measurements.
Results are reported in Table 6, the ocular hypotensive activities of the tested compounds are expressed as IOP change at 60 and 120 minutes after topical administration versus vehicle and versus the basal IOP.

Data set [4] deals with endothelial-dependent vasodilation of rat aortas. Briefly: Endothelial dysfunction evaluation, vascular response to acetylcholine. The data set is classed as cell-based. Particulars: 5-ISMN 30 mg/kg; for Emax at 30 mg/kg: Rattus norvegicus, read-out: % relaxation (Emax), response to acetylcholine. The method, then:
(§3) Thoracic aortas from male New Zealand rabbits or male Sprague Dawley (SD) were used. The aortas were placed immediately in Krebs-HEPES buffer (pH 7.4; composition mM: NaCl 130.0, KCl 3.7, NaHCO3 14.9, KH2PO4 1.2, MgSO4.7H2O 1.2, Glucose 11.0, HEPES 10.0, CaCl2.2H2O 1.6). Connective tissue was removed and aortas were cut into ring segments (4-5 mm in length). Each ring was placed in a 5 mL tissue bath filled with Krebs-HEPES buffer (37° C.) aerated with 95% O2 and 5% CO2 and was attached to a force transducer (Grass FT03), connected to a BIOPAC MP150 System for measurement of the isometric tension. Preparations were allowed to equilibrate for 1 h at a resting tension of 2 g for rabbit aortas and 1 g for rat aortas with changes of the buffer every 15 min. Then the rings were stimulated by exposure to 90 mM KCl (3 times) with intervening washings.
(§4) Rat aorta. After equilibration, rat aortas were precontracted with KCl (90 mM) and, when the contraction was stable, a cumulative concentration-response curve to acetylcholine (ACh, 0.01-100 μM) was added. After washout, the rings were precontracted again with KCl (90 mM). When a steady-state level of contraction was obtained, a cumulative concentration-response curve to the tested compounds (0.01-100 μM) was obtained.
(§5) Data analysis. Results are given as mean±SEM. Vascular responses are expressed as percentage relaxation and plotted vs concentration. The sensitivity of isolated aorta to different vasodilators is expressed as the concentration that elicited 50% of the maximal responses (EC50). Responses are quantified in terms of EC50 and Emax (maximal vasodilating effect) values, obtained from the concentration-response curve by nonlinear curve fitting, using GraphPad software.
Endothelial-dependent vasodilation (vascular response to acetylcholine, ACh) was assessed following 5-day treatment with Compound (6) (100 mg/kg) or 5-ISMN (30 mg/kg). A relaxant response to ACh indicated the presence of a functional endothelium. The vascular response was performed as described in Example 6.

Data set [5] concerns ocular normotensive New Zealand rabbits. Briefly: IOP lowering activity in ocular normotensive New Zealand rabbits. The data set is classed as in vivo, New Zealand White rabbits. The method, then:
Intraocular pressure (IOP) lowering activity in ocular normotensive New Zealand rabbits.
• compound (6) • timolol that is a drug commonly used for the treatment of glaucoma and ocular hypertension. • Isosorbide mononitrate (5-ISMN) that is a commonly used nitric oxide donor drug.
as §2
IOP was measured using a pneumatonometer 30 CLASSIC™ before topical application (basal) and a different time point (30, 60, 120, 240 and 300 min) thereafter. Vehicle (5% cremophor-EL; 0.3% DMSO; 0.2 mg/ml BAK in PBS pH 6.0) or tested compounds dissolved in the vehicle were instilled as eye drops into the conjunctiva pocket. Eyes were randomly assigned to different treatment groups. One drop of 0.4% oxybuprocaine hydrochloride (Novesine, Sandoz) was instilled in each eye immediately before each set of pressure measurements.
The test results are reported in Table 7, the ocular hypotensive activity is expressed as IOP changes at 30, 60, 120 and 300 minutes after topical administration versus vehicle and versus IOP at basal.

For data set [6], the system named is rat L-NAME-induced hypertension. In words: Systolic blood pressure in rat L-NAME-induced hypertension, single oral dose. Particulars: for Delta vs basal (mmHg), systolic blood pressure: 5-ISMN 30 mg/kg oral. The data set is classed as in vivo. The protocol:
To assess the in vivo NO-dependent activity, Compound (6) was evaluated for systolic blood pressure (SBP) reduction efficacy in a rat model of NO-deprivation induced by L-NAME and compared with 5-ISMN.
as §1

Data set [7] has as its system isolated aortas from rats. Briefly: Ex vivo tolerance evaluation, vascular response of isolated rat aortas. Type of data set: cell-based. Particulars: for EC50 at 30 mg/kg: Rattus norvegicus, read-out: EC50 (μM), vascular response to 5-ISMN. The method, then:
as §3, §4, §5
Tolerance to nitrate was further investigated assessing the vascular effects of Compound (6) following repeated treatment compared with 5-ISMN. The vascular response to the compound itself was assessed on isolated aortas from rats orally treated for 5 days with Compound (6) (100 mg/kg). The vascular response was performed as described in Example 6.
Vascular responses were performed 1 h (ISMN) or 3 h (Compound (6)) after the last administration, the concentrations of tested compound that elicited the 50% of the maximal responses (EC50) are shown in Table 4.

[8] abbreviates: 60 min after topical administration.
Setting [9] is: 120 min after topical administration.
[10] abbreviates: 30 min after topical administration.
[11] abbreviates: 300 min after topical administration.
The mark [12] stands for this setting: Method A (ADP-FeCl3 and NADPH), inhibition of TBARS production after 30 min.

Read-outs that look alike come from different tables or passages of the source.

Regarding `O=C(O)/C=C/c1ccc(O)c(O)c1` [Caffeic acid], in data set [1] (Method B (2.5 μM FeSO4)), the concentration for half-maximal inhibition (IC50) came out at 33 µM.
For `O=[N+]([O-])O[C@@H]1CO[C@H]2[C@@H]1OC[C@@H]2O` [Compound 5-ISMN, isosorbide-5-mononitrate], the “efficacy in preventing L-NAME-induced hypertension after 5-day oral treatment” value in data set [2] (compound (6) 100 mg/kg) is “did not maintain its efficacy”. Moreover, the “Delta vs basal (mmHg)” value in data set [2] (acute) was 10.5 ± 6.1 mmHg; in data set [2] (repeated (5 days oral)) it was 88 ± 11.5 mmHg. For the same compound, the “ΔΔ (mmHg), IOP change versus vehicle and versus basal IOP” value in data set [3] (setting [8]) is reported as −0.7 ± 2.9 mmHg; in data set [3] (setting [9]), −6.6 ± 1.8 mmHg. The “effect on endothelial-dependent vasorelaxation (response to ACh)” value in data set [4] (5-day treatment, Compound (6) 100 mg/kg) was “caused a reduced response to Ach”. For the same compound, the Emax at 30 mg/kg in data set [4] (120 h, repeated (5-day treatment)) came to 78.2 ± 9.2%; in data set [4] (acute), 92.7 ± 4.3%. Besides, the “ΔΔ (mmHg), IOP change versus vehicle and versus IOP at basal” value is listed as −1.5 ± 0.3 mmHg in data set [5] (setting [10]), −1.7 ± 0.4 mmHg in data set [5] (setting [8]), −0.6 ± 0.4 mmHg in data set [5] (setting [9]) and −0.8 ± 0.4 mmHg in data set [5] (setting [11]). In addition, the “Delta vs basal (mmHg), systolic blood pressure” value in data set [6] (1 hour) was found to be 10.5 ± 6.1 mmHg; in data set [6] (3 hours), 6.5 ± 2.4 mmHg; in data set [6] (6 hours), 51.2 ± 5.7 mmHg; in data set [6] (24 hours), 83 ± 9 mmHg. Besides, the “time over which L-NAME induced hypertension was counteracted after treatment” value in data set [6] (single oral administration, 5-ISMN 30 mg/kg, Compound (6) 100 mg/kg) was determined as 3 h. The “vascular sensitivity of aortas of treated animals to the compound itself versus vehicle/control arteries” value in data set [7] (5-day oral treatment, 5-ISMN 30 mg/kg, Compound (6) 100 mg/kg) is reported as “showed a reduced vascular response”. In addition, the EC50 at 30 mg/kg in data set [7] (1 h) was 20 ± 0.6 µM; in data set [7], 127 ± 48 µM.
As to `COC1=C(OC)C(=O)C(CCCOCCO[N+](=O)[O-])=C(C)C1=O` [Compound (20), 2-(3-(4,5-dimethoxy-2-methyl-3,6-dioxocyclohexa-1,4-dienyl)propoxy)ethyl nitrate], the “ΔΔ (mmHg), IOP change versus vehicle and versus basal IOP” value in data set [3] (setting [8]) is listed as −18.9 ± 2.4 mmHg; in data set [3] (setting [9]), −9.1 ± 1.6 mmHg.
As to `CC1=C(CCCCCCO[N+](=O)[O-])C(=O)c2ccccc2C1=O` [Compound (23), 6-(3-methyl-1,4-dioxo-1,4-dihydronaphthalen-2-yl) hexyl nitrate], the IC50 in data set [1] (setting [12]) was 1.4 µM.
As to `CC1=C(CCCOCCCO[N+](=O)[O-])C(=O)c2ccccc2C1=O` [Compound (25), 3-(3-(3-methyl-1,4-dioxo-1,4-dihydronaphthalen-2-yl)propoxy)propyl nitrate], the “ΔΔ (mmHg), IOP change versus vehicle and versus basal IOP” value is on record as −11.5 ± 2.8 mmHg in data set [3] (setting [8]) and −10.2 ± 1.3 mmHg in data set [3] (setting [9]).
On to `CCN[C@H]1C[C@H](C)S(=O)(=O)c2sc(S(N)(=O)=O)cc21` [Dorzolamide, dorzolamide], for which the “ΔΔ (mmHg), IOP change versus vehicle and versus basal IOP” value in data set [3] (setting [8]) was −6.9 ± 2.1 mmHg; in data set [3] (setting [9]), −6.7 ± 1.7 mmHg.
Turning to `COC1=C(OC)C(=O)C(CCCCCCCCCCO)=C(C)C1=O` [Idebenone], in data set [1] (setting [12]), the IC50 was 1.6 µM.
For the compound `CC(C)(C)NC[C@H](O)COc1nsnc1N1CCOCC1` [Timolol, timolol], the “ΔΔ (mmHg), IOP change versus vehicle and versus basal IOP” value in data set [3] (setting [8]) is reported as −5.7 ± 1.4 mmHg; in data set [3] (setting [9]), −8.4 ± 1.2 mmHg. The “ΔΔ (mmHg), IOP change versus vehicle and versus IOP at basal” value is reported as −0.4 ± 0.4 mmHg in data set [5] (setting [10]), −0.7 ± 0.4 mmHg in data set [5] (setting [8]), −0.9 ± 0.4 mmHg in data set [5] (setting [9]) and −0.05 ± 0.4 mmHg in data set [5] (setting [11]).
